Assay results published in article PMC3994669 (Cancer cell, 2014).
Read-outs that look alike come from different tables or passages of the source. *1 amine or outer side, *2 acyl side, *3 side chain or, on linkers, in order; H or OH if unused. Where a SMILES comes first, the peptide text is derived from it. Bridges are numbered along the chain shown (N, C = ends). Roman numbers before positions name the chains, in order. [ ]: non-standard residue; d: D form. Actinocin(9to1) = Cc1c2oc3c(C)ccc(C(=O)[*:1])c3nc-2c(C(=O)[*:2])c(N)c1=O; NMeV = CN[C@H](C(=O)O)C(C)C; Sar = CNCC(=O)O

Legend:
[1] = system: Myc1 mouse G3 MB neurospheres; test: Dose-response proliferation assay; type: cell-based; settings: for EC50: Mus musculus, 72 h, read-out: EC50 Myc1; for efficacy against Myc1: 72 hr treatment
BJ = test: Dose-response proliferation assay on BJ control fibroblasts; type: cell-based; settings: Homo sapiens, read-out: EC50 BJ
Trp53-null neurospheres = test: Dose-response proliferation assay on control Trp53-null neurospheres; type: cell-based, mouse; settings: for EC50: Mus musculus, 72 h, read-out: EC50 Trp53-null; for efficacy against Trp53-null: 72 hr treatment
HepG2 = test: Dose-response proliferation assay on HepG2 control cells; type: cell-based; settings: Homo sapiens, HepG2, read-out: EC50 HepG2
[2] = mouse, in vivo
H3K27me3 = H3K27me3 immunoblotting of Myc1 cell lysates; type: cell-based, mouse; settings: Myc1, 72 hr; 0.5 μM decitabine, 40 nM pemetrexed
[3] = system: four additional mouse G3 MB lines; test: Dose-response on four additional mouse G3 MB lines; type: cell-based; settings: four independently derived mouse G3 MB lines
Myc1 neurospheres = test: In vitro wash-out experiments on Myc1; type: cell-based; settings: Mus musculus
Myc1 mouse G3 MB = test: Survival of mice with cortical Myc1 G3 MB implants; type: in vivo
[4] = system: OA-2012-1 G3 MB PDX neurospheres; test: Cell viability of G3 MB PDX OA-2012-1 neurospheres; type: cell-based; settings: Homo sapiens, 72 h, read-out: EC50 OA-2012-1
mouse G3 MB tumor cells = test: Cell death; type: cell-based; settings: for cell death by Annexin V staining: tumor cells in vitro
[5] = type: in vivo; settings: murine plasma, single IV injection pemetrexed 200 mg/kg, gemcitabine 60 mg/kg
Myc2 mouse G3 MB = test: Survival of mice with Myc2 G3 MB implants; settings: treatment at days 4 and 11; vehicle 11 days
[6] = system: human neural stem cells H9; test: Cell viability of human neural stem cells H9; type: cell-based; settings: H9, 72 h, read-out: EC50 H9 cells
SHH MB-derived line = test: Dose-response on SHH MB-derived line; type: cell-based, mouse
[7] = system: TB-12-5950 G3 MB PDX neurospheres; test: Cell viability of G3 MB PDX TB-12-5950 neurospheres; type: cell-based; settings: Homo sapiens, 72 h, read-out: EC50 TB-12-5950
[8] = read-out: EC50 wash-out, 1 hr drug exposure, read 72 hr after
[9] = read-out: EC50 wash-out, 10 hr drug exposure, read 72 hr after
[10] = read-out: EC50 wash-out, 24 hr drug exposure, read 72 hr after

SMILES	EC50 [1]	EC50 (Trp53-null neurospheres)	EC50 (HepG2)	further results
CC(C)C[C@H](NC(=O)[C@H](Cc1ccccc1)NC(=O)c1cnccn1)B(O)O [Bortezomib]	0.0063 µM	0.0027 µM	0.026 µM	EC50 (BJ): 0.023 µM
COc1cc([C@@H]2c3cc4c(cc3[C@H](O)[C@H]3COC(=O)[C@H]23)OCO4)cc(OC)c1OC [Podofilox]	0.0064 µM	0.0074 µM	0.0039 µM	–
Nc1nc2nc[nH]c2c(=S)[nH]1 [Thioguanine]	0.44 µM	0.8 µM	11 µM	–
CC[C@@]1(O)C(=O)OCc2c1cc1n(c2=O)Cc2cc3c(CN(C)C)c(O)ccc3nc2-1 [Topotecan]	0.075 µM	0.18 µM	0.09 µM	–
Nc1ccn([C@@H]2O[C@H](CO)[C@@H](O)[C@@H]2O)c(=O)n1 [Cytarabine]	0.083 µM	0.2 µM	0.078 µM	–
O=c1[nH]cc(F)c(=O)[nH]1 [Fluorouracil]	0.36 µM	0.22 µM	–	–
O=C(O)C[C@H](O)C[C@H](O)/C=C/c1c(C2CC2)nc2ccccc2c1-c1ccc(F)cc1 [Pitavastatin]	3.5 µM	–	5 µM	–
CCC(C)(C)C(=O)O[C@H]1C[C@@H](C)C=C2C=C[C@H](C)[C@H](CC[C@@H]3C[C@@H](O)CC(=O)O3)[C@H]21 [Simvastatin]	3 µM	–	9.4 µM	EC50 (BJ): 5.8 µM
COc1cc(NS(C)(=O)=O)ccc1Nc1c2ccccc2nc2ccccc12 [Amsacrine]	0.16 µM	0.55 µM	11 µM	EC50 (BJ): 13 µM
CC(C)c1nc(N(C)S(C)(=O)=O)nc(-c2ccc(F)cc2)c1/C=C/[C@@H](O)C[C@@H](O)CC(=O)O [Rosuvastatin]	2.6 µM	–	–	–
CC1(C)N=C(N)N=C(N)N1c1ccc(Cl)cc1 [Cycloguanil]	0.11 µM	0.18 µM	–	–
Cc1c2oc3c(C)ccc(C(=O)N[C@@H]4C(=O)N[C@H](C(C)C)C(=O)N5CCC[C@H]5C(=O)N(C)CC(=O)N(C)[C@@H](C(C)C)C(=O)O[C@@H]4C)c3nc-2c(C(=O)N[C@@H]2C(=O)N[C@H](C(C)C)C(=O)N3CCC[C@H]3C(=O)N(C)CC(=O)N(C)[C@@H](C(C)C)C(=O)O[C@@H]2C)c(N)c1=O [Dactinomycin] (I: T[dV]P[Sar][NMeV] / II: T[dV]P[Sar][NMeV]; ester I:1-I:C, II:1-II:C; linker I:N-II:N via Actinocin(9to1))	0.0009 µM	0.0024 µM	0.0084 µM	–
CC[C@H](C)C(=O)O[C@H]1C[C@@H](C)C=C2C=C[C@H](C)[C@H](CC[C@@H]3C[C@@H](O)CC(=O)O3)[C@H]21 [Lovastatin]	4 µM	2.1 µM	13 µM	–
Nc1nc(Cl)nc2c1ncn2[C@H]1C[C@H](O)[C@@H](CO)O1 [Cladrabine]	0.0043 µM	0.25 µM	3.3 µM	EC50 (BJ): 1.4 µM
COC(=O)Nc1nc2ccc(C(=O)c3cccs3)cc2[nH]1 [Nocodazole]	0.11 µM	0.094 µM	0.015 µM	–
O=c1[nH]c(=O)n([C@H]2C[C@H](O)[C@@H](CO)O2)cc1C(F)(F)F [Trifluridine]	0.038 µM	0.0029 µM	–	–
COc1cc([C@@H]2c3cc4c(cc3[C@@H](O[C@@H]3O[C@@H]5CO[C@@H](C)O[C@H]5[C@H](O)[C@H]3O)[C@H]3COC(=O)[C@H]23)OCO4)cc(OC)c1O [Etoposide]	0.24 µM	0.046 µM	–	–

SMILES	EC50 [1]	EC50 (Trp53-null neurospheres)	EC50 (HepG2)	further results
Cc1nc2ccc(CN(C)c3ccc(C(=O)N[C@@H](CCC(=O)O)C(=O)O)s3)cc2c(=O)[nH]1 [Raltitrexed]	0.003 µM	0.34 µM	–	–
O=c1[nH]c(=O)n([C@H]2C[C@H](O)[C@@H](CO)O2)cc1F [Floxuridine]	0.0016 µM	0.0001 µM	–	–
CN(Cc1cnc2nc(N)nc(N)c2n1)c1ccc(C(=O)N[C@@H](CCC(=O)O)C(=O)O)cc1 [Methotrexate]	0.0052 µM	0.15 µM	–	–
Nc1nc(Cl)nc2c1ncn2[C@@H]1O[C@H](CO)[C@@H](O)[C@@H]1F [Clofarabine]	0.15 µM	0.34 µM	–	–
COCc1c(C(C)C)nc(C(C)C)c(/C=C/[C@@H](O)C[C@@H](O)CC(=O)O)c1-c1ccc(F)cc1 [Cerivastatin]	0.77 µM	2.5 µM	0.92 µM	–
COc1cc(NCc2ccc3nc(N)nc(N)c3c2C)cc(OC)c1OC [Trimetrexate]	0.035 µM	0.0047 µM	–	–
CC[C@]1(O)C[C@H]2CN(CCc3c([nH]c4ccccc34)[C@@](C(=O)OC)(c3cc4c(cc3OC)N(C=O)[C@H]3[C@@](O)(C(=O)OC)[C@H](OC(C)=O)[C@]5(CC)C=CCN6CC[C@]43[C@@H]65)C2)C1 [Vincristine]	0.0094 µM	0.01 µM	–	toxicity in mice [2]: intolerable toxicity
N=c1ccn2c(n1)O[C@H]1[C@H](O)[C@@H](CO)O[C@H]12 [Ancitabine]	0.031 µM	0.55 µM	–	–
CC[C@]1(O)C[C@@H]2CN(CCc3c([nH]c4ccccc34)[C@@](C(=O)OC)(c3cc4c(cc3OC)N(C)[C@H]3[C@@](O)(C(=O)OC)[C@H](OC(C)=O)[C@]5(CC)C=CCN6CC[C@]43[C@@H]65)C2)C1 [Vinblastine]	0.012 µM	0.015 µM	–	–
Nc1ncn([C@H]2C[C@H](O)[C@@H](CO)O2)c(=O)n1 [Decitabine]	1.3 µM	0.032 µM	–	H3K27me3 levels (H3K27me3): significantly decreased; efficacy against Myc1 [1]: 100%; potency and efficacy compared to Myc1 [3]: comparable potency and efficacy; EC50 (Myc1 neurospheres; [8]): ~2.4 µM; EC50 (Myc1 neurospheres; [9]): ~0.92 µM; EC50 (Myc1 neurospheres; [10]): ~0.5 µM; efficacy against Trp53-null (Trp53-null neurospheres): ≤ 35%
CCc1nc(N)nc(N)c1-c1ccc(Cl)cc1 [Pyrimethamine]	4.9 µM	0.87 µM	–	–
Nc1ccn([C@@H]2O[C@H](CO)[C@@H](O)C2(F)F)c(=O)n1 [Gemcitabine]	0.0021 µM	0.00032 µM	–	increase in median survival (Myc1 mouse G3 MB; two doses of gemcitabine 60 mg/kg at days 2 and 9, vs vehicle): 11 days; EC50 [4]: 0.011 µM; histone 2AX (H2AX) foci (mouse G3 MB tumor cells; 1 hr treatment at 5 nM): induced histone 2AX (H2AX) foci; cell death by Annexin V staining (mouse G3 MB tumor cells): induced cell death; efficacy against Myc1 [1]: 100%; tolerability [2]: well tolerated; clearance relative to previously published reports [5]: around 2 fold; potency and efficacy compared to Myc1 [3]: comparable potency and efficacy; EC50 (Myc1 neurospheres; [8]): 0.044 µM; EC50 (Myc1 neurospheres; [9]): 0.013 µM; EC50 (Myc1 neurospheres; [10]): 0.0038 µM; median survival (Myc2 mouse G3 MB): 26 days; efficacy against Trp53-null (Trp53-null neurospheres): ≤ 63%; EC50 [6]: 0.0015 µM; fold less sensitive compared to Myc1 (SHH MB-derived line): greater than 5 fold; EC50 [7]: 0.0051 µM
Nc1nc2[nH]cc(CCc3ccc(C(=O)N[C@@H](CCC(=O)O)C(=O)O)cc3)c2c(=O)[nH]1 [Pemetrexed]	0.035 µM	15 µM	–	H3K27me3 levels (H3K27me3): no effect; increase in median survival (Myc1 mouse G3 MB; one dose of pemetrexed 200 mg/kg at day 3, vs vehicle): 3 days; increase in median survival (Myc1 mouse G3 MB; two doses of pemetrexed 200 mg/kg at days 3 and 10, vs vehicle): 7 days; EC50 [4]: 0.1 µM; cell death by Annexin V staining (mouse G3 MB tumor cells): induced cell death; tolerability [2]: well tolerated; clearance relative to previously published reports [5]: around 2 fold; potency and efficacy compared to Myc1 [3]: comparable potency and efficacy; EC50 (Myc1 neurospheres; [8]): 1.2 µM; EC50 (Myc1 neurospheres; [9]): 0.5 µM; EC50 (Myc1 neurospheres; [10]): 0.18 µM; median survival (Myc2 mouse G3 MB): 28 days; EC50 [6]: 0.29 µM; sensitivity compared to Myc1 (SHH MB-derived line): as sensitive to pemetrexed as Myc1; EC50 [7]: 0.16 µM
COc1cccc2c1C(=O)c1c(O)c3c(c(O)c1C2=O)C[C@@](O)(C(=O)CO)C[C@@H]3O[C@H]1C[C@H](N)[C@H](O)[C@H](C)O1 [Doxorubicin]	0.028 µM	0.11 µM	0.58 µM	EC50 (BJ): 0.14 µM
CC(C)n1c(/C=C/C(O)CC(O)CC(=O)O)c(-c2ccc(F)cc2)c2ccccc21 (centres unmarked) [Fluvastatin]	4.5 µM	–	–	–
COc1cccc2c1C(=O)c1c(O)c3c(c(O)c1C2=O)C[C@@](O)(C(C)=O)C[C@@H]3O[C@H]1C[C@H](N)[C@H](O)[C@H](C)O1 [Daunorubicin]	0.0075 µM	0.036 µM	1.7 µM	EC50 (BJ): 0.1 µM
